Reference: patent US9409952B2, “Peptide-compound cyclization method” (Chugai Seiyaku Kabushiki Kaisha, priority 2011, dated 2016)
Where two headings read alike, the source gives them in different places. Starred links: 1 amine or outer side, 2 acyl side, 3 side chain; linkers in the order of their positions; H or OH if unused. Positions of bridges follow the written chain, without caps; N, C: chain ends. Non-standard residues stand in square brackets, D forms with d. Residues, ends and D or L forms follow the SMILES beside them. *: point of attachment. Phe(4-CF3) = N[C@@H](Cc1ccc(C(F)(F)F)cc1)C(=O)O; NMePhe(3-Cl) = CN[C@@H](Cc1cccc(Cl)c1)C(=O)O; NMeF = CN[C@@H](Cc1ccccc1)C(=O)O; NMeGABA = CN(CCCC(=O)[*:2])[*:1]; NMeI = CC[C@H](C)[C@H](NC)C(=O)O; NMeβAla = CN(CCC(=O)[*:2])[*:1]; Aoc(2) = CCCCCC[C@H](N)C(=O)O; NMeL = CN[C@@H](CC(C)C)C(=O)O; NMeV = CN[C@H](C(=O)O)C(C)C; NMeS = CN[C@@H](CO)C(=O)O; NMeA = CN[C@@H](C)C(=O)O; Piperidide = C1CCN(*)CC1; dNMeA = CN[C@H](C)C(=O)O; β3hA = C[C@H](N)CC(=O)O; Sar = CNCC(=O)O; tBu = CC(C)(C)*

What was measured:
[1] = PAMPA (parallel artificial membrane permeability assay); type: in vitro ADME; settings: for Papp at 18 hours, 50 µM: PAMPA
How it was run: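 Artificial membrane was 10% (w/v) egg lecithin plus 0.5% (w/v) cholesterol in dodecane on a PVDF filter. A 10 mM DMSO stock was added at 0.5% (v/v) to donor buffer (50 mM MOPSO, pH 6.5, 5.0% glycocholic acid). After 18 h at 37 °C, LC/MS or LC/UV gave donor and acceptor levels for Pe.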

[2] = Metabolic stability in human hepatic microsome; type: in vitro ADME; settings: microsomes
[3] = membrane permeation rate (Pe), 50 mM MOPSO buffer pH 6.5 with 5.0% glycocholic acid, 37° C., 18 hours, read-out: iPAMPA Pe
[4] = pH 7.4, human hepatic microsome, NADPH(+), read-out: CL NADPH(+)
[5] = membrane permeation rate (Pe), 50 mM MOPSO buffer pH 6.5 with 5.0% glycocholic acid, 37° C., 18 hours

Compound	Papp at 18 hours, 50 µM [1, 3] [×10⁻⁶ cm/s]	microsomal CLint at 1 uM [2, 4] [µL/min/mg]	iPAMPA Pe [1, 5]	Papp at 18 hours, 50 µM ([1]; pH 6.5) [×10⁻⁶ cm/s]	microsomal CLint at 1 uM ([2]; human, pH 7.4, CL NADPH(+)) [µL/min/mg]
CC[C@H](C)[C@H]1C(=O)N[C@H](C(=O)N2CCCCC2)CC(=O)N[C@H](C)C(=O)N[C@@H]([C@@H](C)O)C(=O)N(C)[C@@H](Cc2ccccc2)C(=O)N[C@@H](CC(C)C)C(=O)N2CCC[C@H]2C(=O)N(C)[C@@H](C(C)C)C(=O)N[C@@H](Cc2ccccc2)C(=O)N(C)CC(=O)N(C)[C@@H](CC(C)C)C(=O)N[C@@H](C)C(=O)N1C [DP-215] ([dA]T[NMeF]LP[NMeV]F[Sar][NMeL]A[NMeI]D-Piperidide; lactam N-12)	24	35	–	–	–
CC(C)C[C@@H]1NC(=O)[C@H](C(C)C)NC(=O)C[C@@H](C(=O)N2CCCCC2)NC(=O)[C@H]([C@@H](C)O)NC(=O)CN(C)C(=O)[C@H](CC(C)C)N(C)C(=O)[C@H](CC(C)C)N(C)C1=O [DP-727] (VL[NMeL][NMeL][Sar]TD-Piperidide; lactam N-7)	16	59	–	–	–
CC(C)C[C@@H]1NC(=O)C[C@H](C)NC(=O)[C@H](C(C)C)NC(=O)[C@H](CC(C)C)N(C)C(=O)CN(C)C(=O)[C@H](CC(C)C)NC(=O)[C@H](CO)N(C)C(=O)[C@H](CC(C)C)N(C)C(=O)[C@H](CC(C)C)N(C)C(=O)[C@H](CC(C)C)N(C)C(=O)[C@@H](CC(C)C)NC1=O [DP-643] (cyclo(L[Sar][NMeL]V[β3hA]L[dL][NMeL][NMeL][NMeL][NMeS]))	29	24	–	–	–
CC(C)C[C@H]1C(=O)N[C@@H](C)C(=O)N(C)[C@@H](Cc2ccccc2)C(=O)N(C)[C@@H](C)C(=O)N(C)[C@@H](Cc2ccccc2)C(=O)N[C@H](C(=O)N(C)[C@@H](Cc2ccccc2)C(=O)N[C@@H](C)C(=O)N2CCCCC2)CC(=O)N(C)[C@H](C)C(=O)N(C)[C@@H](C)C(=O)N(C)[C@@H](CC(C)C)C(=O)N[C@@H]([C@@H](C)O)C(=O)N(C)[C@@H](C)C(=O)N1C [DP-347] ([dNMeA][NMeA][NMeL]T[NMeA][NMeL]A[NMeF][NMeA][NMeF]D[NMeF]A-Piperidide; lactam N-11)	25	40	–	–	–
CC[C@H](C)[C@@H]1NC(=O)[C@H](CC(C)C)N(C)C(=O)[C@H](C)NC(=O)CCCN(C)C(=O)C[C@H](C)NC(=O)[C@H]([C@@H](C)O)NC(=O)[C@H](Cc2ccccc2)NC(=O)[C@H](C(C)C)N(C)C(=O)[C@H](Cc2ccccc2)N(C)C1=O [DP-824] (cyclo(A[NMeL]I[NMeF][NMeV]FT[β3hA][NMeGABA]))	29	501	–	–	–
CC[C@H](C)[C@H](NC(=O)[C@H](CC(C)C)N(C)C(=O)[C@H](C)N(C)C(=O)[C@@H](NC(=O)[C@H](CC(C)C)N(C)C(=O)[C@@H]1CC(=O)N[C@H](C(C)C)C(=O)N(C)[C@@H](C)C(=O)N(C)[C@@H](Cc2cccc(Cl)c2)C(=O)N(C)[C@@H](CC(C)C)C(=O)N[C@@H]([C@@H](C)O)C(=O)N(C)[C@@H](CC(C)C)C(=O)N1)[C@@H](C)CC)C(=O)N1CCCCC1 [DP-911] ([dV][NMeA][NMePhe(3-Cl)][NMeL]T[NMeL]D[NMeL]I[NMeA][NMeL]I-Piperidide; lactam N-7)	–	152	1.0E−07	–	–
CC[C@H](C)[C@H]1C(=O)N(C)[C@@H](CC(C)C)C(=O)N[C@H](C(=O)N2CCCCC2)CC(=O)N(C)CCC(=O)N(C)[C@@H](CC(C)C)C(=O)N[C@@H]([C@@H](C)O)C(=O)N(C)[C@@H](C)C(=O)N(C)[C@@H](Cc2ccccc2)C(=O)N[C@@H](C)C(=O)N(C)[C@@H](Cc2ccccc2)C(=O)N[C@@H](CC(C)C)C(=O)N1C [DP-240] ([NMeβAla][NMeL]T[NMeA][NMeF]A[NMeF]L[NMeI][NMeL]D-Piperidide; lactam N-11)	38	125	–	–	–
CC[C@H](C)[C@@H]1NC(=O)[C@H](CC(C)C)N(C)C(=O)[C@H](C)NC(=O)CCCN(C)C(=O)C[C@H](C)NC(=O)[C@H]([C@@H](C)O)NC(=O)[C@H](Cc2ccccc2)NC(=O)[C@H](C(C)C)N(C)C(=O)[C@H](C)N(C)C(=O)[C@H](Cc2ccccc2)N(C)C1=O [DP-778] (cyclo(A[NMeL]I[NMeF][NMeA][NMeV]FT[β3hA][NMeGABA]))	–	–	–	26	139
CC(C)C[C@H]1C(=O)N[C@@H](C(C)C)C(=O)N[C@H](C(=O)N(C)[C@@H](Cc2ccccc2)C(=O)N[C@@H](C)C(=O)N2CCCCC2)CC(=O)N[C@H](C)C(=O)N(C)[C@@H](C)C(=O)N(C)[C@@H](Cc2ccccc2)C(=O)N(C)[C@@H](CC(C)C)C(=O)N[C@@H]([C@@H](C)O)C(=O)N(C)CC(=O)N1C [DP-380] ([dA][NMeA][NMeF][NMeL]T[Sar][NMeL]VD[NMeF]A-Piperidide; lactam N-9)	17	58	–	–	–
CC(C)C[C@@H]1NC(=O)[C@H](Cc2ccccc2)N(C)C(=O)[C@H](CC(C)C)N(C)C(=O)[C@@H](C)N(C)C(=O)C[C@H](C)NC(=O)[C@H](CC(C)C)N(C)C(=O)[C@H](Cc2ccccc2)N(C)C(=O)[C@H]([C@@H](C)O)NC(=O)[C@H](Cc2ccccc2)N(C)C1=O [DP-793] (cyclo(L[NMeF]T[NMeF][NMeL][β3hA][dNMeA][NMeL][NMeF]))	53	218	–	–	–
CC[C@H](C)[C@@H]1NC(=O)[C@H](CC(C)C)N(C)C(=O)CN(C)C(=O)[C@H]([C@@H](C)O)NC(=O)[C@H](CC(C)C)N(C)C(=O)[C@H](Cc2ccccc2)N(C)C(=O)[C@H](C)N(C)C(=O)[C@@H](C)NC(=O)C[C@@H](C(=O)N(C)[C@@H](Cc2ccccc2)C(=O)N[C@@H](C)C(=O)N2CCCCC2)NC(=O)[C@H](C(C)C)N(C)C1=O [DP-290] ([dA][NMeA][NMeF][NMeL]T[Sar][NMeL]I[NMeV]D[NMeF]A-Piperidide; lactam N-10)	19	23	–	–	–
CC[C@H](C)[C@H]1C(=O)N[C@@H](CC(C)C)C(=O)N2CCC[C@H]2C(=O)N[C@@H]([C@@H](C)O)C(=O)N(C)[C@@H](C)C(=O)N[C@@H](Cc2ccccc2)C(=O)N[C@H](C(=O)N2CCCCC2)CC(=O)N(C)[C@@H](C)C(=O)N[C@@H](Cc2ccccc2)C(=O)N(C)[C@@H](CC(C)C)C(=O)N[C@@H](COC(C)(C)C)C(=O)NCC(=O)N1C [DP-57] ([NMeA]F[NMeL]S(tBu)G[NMeI]LPT[NMeA]FD-Piperidide; lactam N-12)	–	–	–	26	23
CC(C)C[C@@H]1NC(=O)[C@H](C)NC(=O)C[C@H](C)NC(=O)[C@H](C(C)C)N(C)C(=O)[C@H](CC(C)C)N(C)C(=O)[C@H]([C@@H](C)O)NC(=O)[C@H](Cc2ccc(C(F)(F)F)cc2)NC(=O)[C@H](C)N(C)C(=O)CNC(=O)[C@H](CC(C)C)N(C)C(=O)[C@H](C)N(C)C1=O [DP-829] (cyclo(AL[NMeA][NMeL]G[NMeA][Phe(4-CF3)]T[NMeL][NMeV][β3hA]))	21	65	–	–	–
CC(C)C[C@H]1C(=O)N[C@H](C(=O)N2CCCCC2)CC(=O)N(C)CCCC(=O)N(C)[C@@H](Cc2ccccc2)C(=O)N[C@@H]([C@@H](C)O)C(=O)N(C)[C@@H](C)C(=O)N[C@@H](COC(C)(C)C)C(=O)N1C [DP-680] ([NMeGABA][NMeF]T[NMeA]S(tBu)[NMeL]D-Piperidide; lactam N-7)	15	96	–	–	–
CC(C)C[C@H]1C(=O)N[C@@H](COC(C)(C)C)C(=O)N(C)[C@@H](Cc2ccccc2)C(=O)N(C)[C@@H](CC(C)C)C(=O)N[C@H](C(=O)N2CCCCC2)CC(=O)N(C)CC(=O)N[C@@H]([C@@H](C)O)C(=O)N1C [DP-743] ([Sar]T[NMeL]S(tBu)[NMeF][NMeL]D-Piperidide; lactam N-7)	16	126	–	–	–
CCCCCC[C@@H]1NC(=O)[C@H](CC(C)C)N(C)C(=O)CN(C)C(=O)[C@H](CC(C)C)NC(=O)C[C@H](C)NC(=O)[C@H](CC(C)C)N(C)C(=O)[C@H](CC(C)C)N(C)C(=O)[C@H](CC(C)C)N(C)C(=O)[C@@H](C)NC(=O)[C@H](CO)NC(=O)[C@H](CC(C)C)N(C)C1=O [DP-647] (cyclo([Aoc(2)][NMeL]S[dA][NMeL][NMeL][NMeL][β3hA]L[Sar][NMeL]))	29	132	–	–	–
CC[C@H](C)[C@H](NC(=O)[C@H](Cc1ccccc1)N(C)C(=O)[C@@H]1CC(=O)N[C@@H](C)C(=O)N[C@@H](CC(C)C)C(=O)N(C)[C@@H]([C@@H](C)CC)C(=O)N[C@@H](C(C)C)C(=O)N(C)[C@@H](Cc2ccccc2)C(=O)N[C@@H](CC(C)C)C(=O)N(C)[C@@H](Cc2ccccc2)C(=O)N1)C(=O)N1CCCCC1 [DP-573] (AL[NMeI]V[NMeF]L[NMeF]D[NMeF]I-Piperidide; lactam N-8)	–	72	1.0E−07	–	–
CC(C)C[C@@H]1NC(=O)[C@H](C(C)C)N(C)C(=O)[C@H](Cc2ccccc2)NC(=O)CN(C)C(=O)[C@H]([C@@H](C)O)NC(=O)[C@H](C)N(C)C(=O)[C@H](CC(C)C)N(C)C(=O)[C@@H](C(C)C)NC(=O)C[C@@H](C(=O)N2CCCCC2)NC(=O)[C@H](C)NC(=O)[C@H](CC(C)C)N(C)C1=O [DP-143] ([dV][NMeL][NMeA]T[Sar]F[NMeV]L[NMeL]AD-Piperidide; lactam N-11)	–	–	–	20	25
CC(C)C[C@H]1C(=O)N(C)[C@@H](Cc2ccccc2)C(=O)NCC(=O)N[C@H](C(=O)N2CCCCC2)CC(=O)N(C)CC(=O)N[C@@H]([C@@H](C)O)C(=O)N(C)[C@@H](C)C(=O)N[C@@H](COC(C)(C)C)C(=O)N(C)[C@@H](Cc2ccccc2)C(=O)N1C [DP-271] ([Sar]T[NMeA]S(tBu)[NMeF][NMeL][NMeF]GD-Piperidide; lactam N-9)	10	38	–	–	–
